# Test results: US8785457B2 (Cellzome Limited, priority 2009, dated 2014)
# Key:
# [1] = test system: Delayed type hypersensitivity (DTH) reaction; test: Delayed type hypersensitivity in mice (KLH, ear thickness); assay type: in vivo
# Description: The Delayed type hypersensitivity (DTH) reaction is observed when subjects are immunized with an antigen, and then subsequently challenged with the same antigen to induce a localized inflammation. The model can be inhibited by drugs affecting a range of immune and inflammatory mechanisms. In this instance, a DTH reaction is induced in mice using Keyhole Limpet Hemocyanin (KLH), measuring inflammation in the ear pinna. Keyhole Limpet Hemocyanin (KLH; Sigma, catalogue number H7017) preparation: […] Aliquots were stored at −20° C. For the first immunization (day 0) the KLH stock solution (10 mg/ml) was diluted to 0.5 mg/ml with PBS (1:20). Then a 1:1 mixture with Complete Freund's Adjuvant (CFA; Sigma catalogue number 5881) was prepared (final KLH concentration 0.25 mg/ml). For the second immunization (day 5) the KLH stock solution was diluted to 1 mg/ml with 0.9% NaCl (1:10). Mice (Balb/c ˜9 weeks of age) were immunized with 2×100 μl of a 1:1 emulsion of KLH in CFA (25 μg KLH/site) injected subcutaneously into the right and left flank. On day 5 post-injection, mice received a challenge of 10 μg KLH (in 10 μl physiological saline), injected intradermally into the right ear. On day 5, 6 and 7 the ear thickness was measured with a caliper. Measurements were performed one hour after compound administration in the morning. Compound CZC1 corresponding to example 34 of the present invention was dosed once daily orally (p.o.) from day 0 to day 7 (Table 10). Vehicle: 0.5% carboxymethylcellulose (CMC). Doses: 3, 10 and 30 mg/kg. Cyclosporine A (Calbiochem) was dosed twice daily orally (p.o., 8 am and 4 pm from day 0 to day 7). Vehicle: 5% DMSO, 0.5 CMC. Dose: 25 mg/kg. Control treatment: 5% DMSO, 0.5% CMC administered p.o. [table]
# [2] = test system: Salmonella typhimurium strain TA1537; test: Ames plate assay, TA1537
# Method: Certain compounds of the invention were tested for their potential to induce gene mutations in bacterial strains of Salmonella typhimurium (strains TA1535, TA1537, TA98, TA100) and Escherichia coli (strain WP2uvrA(pKM101)) in a bacterial mutation assay in the absence and presence of metabolite activation (rat S9-mix). Compounds are tested at the following dose levels: 50, 150, 500, or 1500 μg/plate.
# Vehicle control treatment is the vehicle used to prepare the test compound formulation diluted to the same extent as the test compound solution. Positive controls using known mutagens are included for each strain with and without rat S9 mix. Four plates are used for the vehicle control and two replicate plates per dose per strain for the treated groups and for each positive control. At the end of incubation the number of revertant colonies per plate are recorded and mean values calculated for each vehicle control, positive control and concentration of test compound used. Results are also expressed as a ratio of the mean values to the mean concurrent vehicle control value (i.e. fold increase).
smiles,measurement,setting,value
"CCOC(=O)N1Cc2nc(-c3ccc(NC(=O)NC4CC4)cc3)nc(N3CCOC[C@@H]3C)c2C1 [Example 34, (S)-ethyl 2-(4-(3-cyclopropylureido)phenyl)-4-(3-methylmorpholino)-5H-pyrrolo[3,4-d]pyrimidine-6(7H)-carboxylate]",increase in ear thickness,"[1]; 3 mg/kg p.o. once daily day 0 to day 7, 24 hours post-challenge",significantly reduced
same,increase in ear thickness,"[1]; 10 mg/kg p.o. once daily day 0 to day 7, 24 hours post-challenge",significantly reduced
same,increase in ear thickness,"[1]; 30 mg/kg p.o. once daily day 0 to day 7, 24 hours post-challenge",significantly reduced
same,Ames plate assay TA1537 +S9,"[2]; TA1537, +S9, 50 μg/Plate",−
same,Ames plate assay TA1537 +S9,"[2]; TA1537, +S9, 150 μg/Plate",−
same,Ames plate assay TA1537 +S9,"[2]; TA1537, +S9, 500 μg/Plate",−
same,Ames plate assay TA1537 +S9,"[2]; TA1537, +S9, 1500 μg/Plate",−
same,Ames plate assay TA1537 −S9,"[2]; TA1537, −S9, 50 μg/Plate",−
same,Ames plate assay TA1537 −S9,"[2]; TA1537, −S9, 150 μg/Plate",−
same,Ames plate assay TA1537 −S9,"[2]; TA1537, −S9, 500 μg/Plate",−
same,Ames plate assay TA1537 −S9,"[2]; TA1537, −S9, 1500 μg/Plate",−
